From publication PMC10552892, “Ebselen oxide and derivatives are new allosteric HER2 inhibitors for HER2‐positive cancers” (Molecular Oncology, 2023)

Experiments:
[1] = target: T1, HER2 in heterodimers with EGFR/HER1 (Homo sapiens, UniProt P04626); assay: Ligand-dependent HER2 activation in HBMECs upon EGF stimulation (western blot); assay type: cell-based; details: 10 μM, 50 ng/ml EGF 5 min
T1 construct: in noncancer cells expressing normal levels of HER2; endogenous in cells; host or cells: HBMEC

[2] = target: T2, HER2 in heterodimers with HER3 (Homo sapiens, UniProt P04626); assay: Ligand-dependent HER2 activation in HBMECs upon HRG stimulation (western blot); assay type: cell-based; details: 10 μM, 100 ng/ml Heregulin-1β 5 min
T2 construct: in noncancer cells expressing normal levels of HER2; endogenous in cells; host or cells: HBMEC

MDA-MB-231 [3] = assay: Soft agar anchorage-independent growth, MDA-MB-231; assay type: cell-based, human; details: 10 μM
Experimental: A bottom layer of 0.8% agarose in DMEM supplemented with 20% FBS and penicillin/streptomycin was added to 24‐well plates before seeding 25.10^3 cells per well in a 0.6% agarose top layer. Cells were treated with a vehicle or with 10 μM ebselen oxide or derivatives. Treatments were renewed 3 times a week. After 6 weeks, colonies were visualized with a phase‐contrast microscope and their number and size were quantified using IMAGEJ software.
(§1) Fig. 2 Ebselen oxide inhibits HER2 activation, cell proliferation, and anchorage‐independent growth of HER2^+ breast cancer cells. […] Blot and quantification of a representative experiment are shown out of 4 (A), 5 (B), or 2 (C) independent experiments. (D–F) Proliferation curves of HER2‐positive (SKBR3, D or BT474, E) or HER2‐negative (MDA‐MB‐231, F) breast cancer cell lines treated with vehicle or 10 μM ebselen oxide assessed by MTT assay. […] (G–I) Anchorage‐independent growth of SKBR3 (G), BT474 (H), or MDA‐MB‐231 (I) cells treated with vehicle or 10 μM ebselen oxide. […] Scale bars are […].

[4] = system: HBMECs transfected with pRK5 empty vector; assay: Proliferation of HBMECs transfected with pRK5 empty vector (Incucyte); details: 5 μM, Incucyte 5 days
Experimental: 25.10^3 cells/96‐well transfected HBMECs or 9.10^3 cancer cells were seeded and monitored with an Incucyte S3 imaging system (Sartorius, Goettingen, Germany) using 10× objective every 2 h during 5 days. Confluency analyses were performed using the dedicated Incucyte analysis system.
Proliferation was assessed by Incucyte during 5 days.
Representative quantification of the proliferation (B) is shown where data are mean ± sem (n=8-12).
vehicle, 5-10 µM Ebselen oxide or 5 µM AG1478.

gD-HER2-WT = target: T3, gD-HER2-WT (Homo sapiens, UniProt P04626); assay: Western blot of HBMECs overexpressing gD-HER2-WT; assay type: cell-based; details: 5 μM, 24 h
T3 construct: expressed in transfected cells; host or cells: HBMEC (human bone marrow endothelial cells)
Experimental: Human bone marrow endothelial cells (HBMECs) kindly provided by Dr. B. Weksler (Weill Medical College of Cornell University, NY) were cultured as described previously. The human breast cancer cell lines [SKBR3 (RRID:CVCL_0033), BT474 (RRID:CVCL_0179), and MDA‐MB‐231 (RRID:CVCL_0062)], the human gastric [NCI‐87 (RRID:CVCL_1603)] and ovarian [SKOV3 (RRID:CVCL_0532)] cancer cell lines were obtained from the American Type Culture Collection (Manassas, VA) and were maintained in DMEM containing 10% FBS. All cell lines were cultured under 5% CO2 at 37 °C. HBMECs were transfected using Amaxa Inc nucleofector system (Kit V and U015 program). FBS was decreased to 1% to analyze HER2 activation status and HER2‐dependent cell proliferation in SKOV3 as previously described. Periodic tests for Mycoplasma and authentication were performed using commercially available kits.

HER2 (pY1248) in NCI-N87 = target: T4, HER2 (pY1248) in NCI-N87 (Homo sapiens, UniProt P04626); assay: HER2 activation in NCI-N87 gastric cancer cells, western blot; assay type: cell-based
T4 construct: host or cells: NCI-N87
Experimental: (A-C) HER2-positive […] (SKBR3, A; NCI-N87, B; BT474, C) treated or not with Ebselen
indicated, were analyzed by western blot to evaluate HER2 activation status using antibodies directed
Proliferation was assessed by Incucyte during 4 days.

SKBR3 = assay: MTT proliferation assay, SKBR3; assay type: cell-based, human; details: 10 μM
Experimental: as §1

p95HER2 = p95HER2 (Homo sapiens, UniProt P04626); assay: Activation of gD-tagged p95HER2 in HBMECs, western blot; details: 5–10 μM, 24 h
Experimental: (§2) Cells were washed with cold PBS and lysed in a buffer containing 1% Triton, 50 mM Tris–HCl pH 8.8, 25 mM NaCl, 1 mM EDTA, 1 mM Na3VO4, 1 mM AEBSF, 10 μg·mL^−1 each of aprotinin/leupeptin/pepstatin or lysed in Laemmli buffer. Proteins were separated by SDS/PAGE and transferred to nitrocellulose (Schleicher & Schuell, Keene, NH, USA). Membranes were blocked for 1 h in TBS/0.1% Tween20/3% BSA and probed overnight with indicated antibodies. Peroxidase‐coupled secondary antibodies were used to reveal antibody binding using the ECL substrate (Pierce, Thermo Fisher Scientific, Waltham, MA, USA) and Fusion FX (Vilber Lourmat, Collégien, France) chemoluminescence acquisition system. Quantifications were done with IMAGEJ software (1.53e) (NIH, USA).
Vector encoding wild‐type glycoprotein D‐tagged form of HER2 (gD‐HER2‐WT) [18] was a kind gift of Dr M. Sliwkowski (Genentech, San Francisco, CA, USA). […] Vector encoding the HER2p95 [19] was provided by Dr J. Baselga.
(A–C) Lysates were then analyzed by western blot using antibodies against pY1248 HER2 and HER2. Representative blot and data quantification (mean ± SEM) are shown out of 3 (A), 3 (B), or 4 (C) independent experiments. One‐way ANOVA followed by Dunnett's multiple comparison test, *P < 0.05, **P < 0.01, ***P < 0.001.

gD-HER2-EBM* = assay: Western blot of HBMECs overexpressing ERM-binding-motif mutant gD-HER2-EBM*; details: 5 μM, 24 h, HBMEC
Experimental: as §2
(G, H) Lysates from HBMECs transfected with vectors encoding gD‐tagged wild‐type HER2 (gD‐HER2‐WT) (G) or the mutant generated with alanine and glycine substitutions within the ERM‐binding motif (gD‐HER2‐EBM*) (H) and treated or not during 24 h with 5 μM ebselen oxide were analyzed by western blot using antibodies against activated HER2 (pY1248), HER2, activated ERK (pERK), and ERK. Representative blots and quantification of data are shown where data are mean ± sem [n = 3 (G); n = 2 (H)].

NCI-N87 = assay: Incucyte proliferation, single agents and combinations, NCI-N87; assay type: cell-based; details: Homo sapiens, NCI-N87, 96 h; read-out: Reduction/inhibition of cell proliferation
Experimental: (A–C) Proliferation curves of HER2‐positive (SKBR3, A; BT474, B; NCI‐N87, C) cancer cell lines treated or not with ebselen oxide (10 μM), lapatinib (10–1000 nM), or combination of these agents, as indicated. Proliferation was assessed overtime by Incucyte during 4 days. Data are mean ± SD (n = 8–12) of a representative experiment out of 4 (A), 3 (B), or 2 (C) independent experiments. […] Proliferation was assessed by Incucyte during 4 days. […] Scale bars are […].

MDA-MB-231 [5] = assay: MTT proliferation assay, MDA-MB-231; assay type: cell-based, human; details: 10 μM
Experimental: as §1

T3 sequence (P04626 23-1255): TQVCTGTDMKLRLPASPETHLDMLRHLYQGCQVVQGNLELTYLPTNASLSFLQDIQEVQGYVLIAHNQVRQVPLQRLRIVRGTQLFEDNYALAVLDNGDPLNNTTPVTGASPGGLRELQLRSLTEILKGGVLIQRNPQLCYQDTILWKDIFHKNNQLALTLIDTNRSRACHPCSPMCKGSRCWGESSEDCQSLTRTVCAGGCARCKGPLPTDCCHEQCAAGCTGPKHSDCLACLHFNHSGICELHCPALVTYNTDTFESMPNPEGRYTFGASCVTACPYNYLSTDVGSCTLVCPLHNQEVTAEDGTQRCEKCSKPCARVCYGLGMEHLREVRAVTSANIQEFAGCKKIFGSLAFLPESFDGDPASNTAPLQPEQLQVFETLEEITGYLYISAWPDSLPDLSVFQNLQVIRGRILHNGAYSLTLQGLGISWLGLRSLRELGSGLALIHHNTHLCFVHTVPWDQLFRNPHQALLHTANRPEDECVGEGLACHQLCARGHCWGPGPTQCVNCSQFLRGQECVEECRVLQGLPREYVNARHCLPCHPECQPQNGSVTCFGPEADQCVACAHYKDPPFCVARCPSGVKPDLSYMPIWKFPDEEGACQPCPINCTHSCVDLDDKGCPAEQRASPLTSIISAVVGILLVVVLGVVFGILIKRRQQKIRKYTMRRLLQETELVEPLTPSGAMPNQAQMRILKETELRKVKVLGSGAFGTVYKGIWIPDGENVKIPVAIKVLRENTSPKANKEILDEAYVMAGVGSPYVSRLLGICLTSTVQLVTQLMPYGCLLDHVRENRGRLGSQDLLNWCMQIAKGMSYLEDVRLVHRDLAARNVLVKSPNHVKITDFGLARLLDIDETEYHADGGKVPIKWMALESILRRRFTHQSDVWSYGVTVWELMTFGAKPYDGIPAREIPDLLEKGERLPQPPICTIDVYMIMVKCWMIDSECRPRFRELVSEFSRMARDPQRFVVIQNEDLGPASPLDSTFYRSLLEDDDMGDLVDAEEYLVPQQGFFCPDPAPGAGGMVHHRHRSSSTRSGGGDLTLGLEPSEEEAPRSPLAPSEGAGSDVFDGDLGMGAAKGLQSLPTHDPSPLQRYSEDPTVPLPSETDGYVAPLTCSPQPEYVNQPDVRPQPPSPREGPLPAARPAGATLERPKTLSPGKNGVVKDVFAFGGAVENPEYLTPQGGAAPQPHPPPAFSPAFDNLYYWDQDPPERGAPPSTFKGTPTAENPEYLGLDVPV
T4 sequence (P04626 23-1255): as above
T1 sequence (P04626 23-1255, one chain of several): as the sequence (P04626 23-1255) above
T2 sequence (P04626 23-1255, one chain of several): as the sequence (P04626 23-1255) above

SMILES: O=C1c2ccccc2[Se](=O)N1c1ccccc1 (centres unmarked) [Ebselen oxide, ebselen oxide]
- Physiological activation of HER2 in heterodimers and downstream AKT and ERK activation upon EGF [1]: did not alter
- Physiological activation of HER2 in heterodimers and downstream AKT and ERK activation upon HRG [2]: did not alter
- Effect on development of micro-colonies (MDA-MB-231 [3]): no impact
- Effect on proliferation of cells transfected with pRK5 empty vector [4]: did not affect
- Reduction of phosphorylation level of gD-HER2-WT (gD-HER2-WT; HBMEC): 40%
- Reduction in the activation of ERK protein kinase (gD-HER2-WT; HBMEC gD-HER2-WT): 65%
- Effect on HER2 activation (HER2 (pY1248) in NCI-N87; ebselen oxide 0–20 μM 24 h, AG1478 5 μM): strongly blocked
- Effect on HER2 activation, single agents and combination (HER2 (pY1248) in NCI-N87; ebselen oxide 10 μM, lapatinib 10 nM): partially decreased
- Reduction of proliferation rate (SKBR3): 35%
- Inhibition of p95HER2 activation (p95HER2): strongly inhibited
- Downstream activation of ERK induced by gD-HER2-EBM* overexpression (gD-HER2-EBM*): did not reduce
- Phosphorylation of gD-HER2-EBM* (gD-HER2-EBM*): did not reduce
- inhibition at 10 µM (NCI-N87): 45%
- Effect on proliferation rate (MDA-MB-231 [5]): did not reduce
